From US9346761B2, “Arginine methyltransferase inhibitors and uses thereof” (Epizyme, Inc., priority 2013, dated 2016)
Blank lines part the entries; values can stand above or below the compound they belong to.

Key:
[1] = test system: mono-methyl arginine in RKO cells; assay: RKO methylation assay, In Cell Western for mono-methyl arginine and DNA content; assay type: cell-based; settings: Homo sapiens; In Cell Western, RKO cells, 72 hours, percent activation of mono-methyl arginine signal; read-out: EC30
Text: RKO adherent cells were purchased from ATCC (American Type Culture Collection), Manassas, Va., USA. DMEM/Glutamax medium, penicillin-streptomycin, heat inactivated fetal bovine serum, 0.05% trypsin and D-PBS were purchased from Life Technologies, Grand Island, N.Y., USA. Odyssey blocking buffer, 800CW goat anti-rabbit IgG (H+L) antibody, and Licor Odyssey infrared scanner were purchased from Licor Biosciences, Lincoln, Nebr., USA. Mono-methyl arginine antibody was purchased from Cell Signaling Technology, Danvers, Mass., USA. Methanol was purchased from VWR, Franklin, Mass., USA. 10% Tween 20 was purchased from KPL, Inc., Gaithersburg, Md., USA. […] was purchased from Biostatus Limited, Leicestershire, UK.
RKO adherent cells were maintained in growth medium (DMEM/Glutamax medium supplemented with 10% v/v heat inactivated fetal bovine serum and 100 units/mL penicillin-streptomycin) and cultured at 37° C. under 5% CO2
Cell Treatment, in Cell Western (ICW) for Detection of Mono-Methyl Arginine and DNA Content. […] Compound (100 nL) from a 96-well source plate was added directly to 384 well cell plate. Plates were incubated at 37° C., 5% CO2 for 72 hours. After three days of incubation, plates were brought to room temperature outside of the incubator for ten minutes and blotted on paper towels to remove cell media. 50 μL of ice cold 100% methanol was added directly to each well and incubated for 30 min at room temperature. After 30 min, plates were transferred to a Biotek EL406 plate washer and washed 2 times with 100 μL per well of wash buffer (1×PBS). Next 60 μL per well of Odyssey blocking buffer (Odyssey Buffer with 0.1% Tween 20 (v/v)) were added to each plate and incubated 1 hour at room temperature. Blocking buffer was removed and 20 μL per well of primary antibody was added (mono-methyl arginine diluted 1:200 in Odyssey buffer with 0.1% Tween 20 (v/v)) and plates were incubated overnight (16 hours) at 4° C. Plates were washed 5 times with 100 μL per well of wash buffer. […] The plates were washed 5 times with 100 μL per well wash buffer then 2 times with 100 μL per well of water. Plates were allowed to dry at room temperature then imaged on the Licor Odyssey machine which measures integrated intensity at 700 nm and 800 nm wavelengths. Both 700 and 800 channels were scanned.
Calculations: First, the ratio for each well was determined by:
Each plate included fourteen control wells of DMSO only treatment (minimum activation) as well as fourteen control wells for maximum activation treated with 20 μM of a reference compound. The average of the ratio values for each control type was calculated and used to determine the percent activation for each test well in the plate. Reference compound was serially diluted three-fold in DMSO for a total of nine test concentrations, beginning at 20 μM. Percent activation was determined and EC30 curves were generated using triplicate wells per concentration of compound.

Full-length human PRMT6 = target: T1, Full-length human PRMT6 (Homo sapiens, UniProt Q96LA8); assay: PRMT6 biochemical assay (3H-SAM Flashplate, peptide substrate)
T1 construct: Flag-PRMT6-His was eluted with 200 ug/ml FLAG peptide in the same buffer; made in house; host or cells: HEK 293F cells (BacMam virus, pFastBacMam)
T1 sequence (Q96LA8 with tags, fused parts or gaps): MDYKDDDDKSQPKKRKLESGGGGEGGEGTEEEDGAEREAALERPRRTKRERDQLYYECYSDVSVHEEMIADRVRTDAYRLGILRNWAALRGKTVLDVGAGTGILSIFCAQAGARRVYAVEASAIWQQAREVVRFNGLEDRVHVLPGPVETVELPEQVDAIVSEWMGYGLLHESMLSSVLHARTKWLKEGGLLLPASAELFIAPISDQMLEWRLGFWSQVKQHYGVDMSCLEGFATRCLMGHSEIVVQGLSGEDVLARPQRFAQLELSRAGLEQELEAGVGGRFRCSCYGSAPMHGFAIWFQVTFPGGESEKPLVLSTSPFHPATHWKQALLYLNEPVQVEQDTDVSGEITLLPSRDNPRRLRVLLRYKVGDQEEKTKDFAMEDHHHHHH
Text: (§1) General Materials. S-adenosylmethionine (SAM), S-adenosylhomocysteine (SAH), bicine, Tween20, dimethylsulfoxide (DMSO), bovine skin gelatin (BSG), sodium butyrate and Tris(2-carboxyethyl)phosphine hydrochloride solution (TCEP) were purchased from Sigma-Aldrich at the highest level of purity possible. ^3H-SAM was purchase from American Radiolabeled Chemicals with a specific activity of 80 Ci/mmol. 384-well streptavidin Flashplates were purchased from PerkinElmer.
Substrates. Peptide representative of human histone H4 residues 36-50 was synthesized with an N-terminal linker-affinity tag motif and a C-terminal amide cap by 21st Century Biochemicals.
The amplified gene was subcloned into pFastBacMam (Viva Biotech).
Protein Expression. Recombinant baculovirus were generated according to Bac-to-Bac kit instructions (Life Technologies). […] Infections were carried out at 37° C. for 48 hours, harvested by centrifugation, and stored at −80° C. for purification.
Protein Purification. […] Column was washed with 20 mM imidazole in the same buffer and Flag-PRMT6-His was eluted with 150 mM imidazole. Pooled fractions were dialysed against buffer Ni-A and further purified by anti-flag M2 affinity chromatography. Flag-PRMT6-His was eluted with 200 ug/ml FLAG peptide in the same buffer. Pooled fractions were dialysed in 20 mM Tris, 150 mM NaCl, 10% glycerol and 5 mM β-mercaptoethanol, pH 7.8.
(§2) General Procedure for PRMT6 Enzyme Assays on Peptide Substrates. The assays were all performed in a buffer consisting of 20 mM Bicine (pH=7.6), 1 mM TCEP, 0.005% BSG, and 0.002% Tween 20, prepared on the day of use. […] DMSO (1 ul) was added to Columns 11, 12, 23, 24, rows A-H for the maximum signal control and 1 ul of SAH, a known product and inhibitor of PRMT6, was added to columns 11, 12, 23, 24, rows I-P for the minimum signal control. A cocktail (40 ul) containing the PRMT6 enzyme was added by Multidrop Combi (Thermo-Fisher). The compounds were allowed to incubate with PRMT6 for 30 min at room temperature, then a cocktail (10 ul) containing SAM and peptide was added to initiate the reaction (final volume=51 ul). […] The assays were stopped by the addition of non-radiolabeled SAM (10 ul) to a final concentration of 400 uM, which dilutes the ^3H-SAM to a level where its incorporation into the peptide substrate is no longer detectable. 50 ul of the reaction in the 384-well polypropylene plate was then transferred to a 384-well Flashplate and the biotinylated peptides were allowed to bind to the streptavidin surface for at least 1 hour before being washed once with 0.1% Tween20 in a Biotek ELx405 plate washer. The plates were then read in a PerkinElmer TopCount plate reader to measure the quantity of ^3H-labeled peptide bound to the Flashplate surface, measured as disintegrations per minute (dpm) or alternatively, referred to as counts per minute (cpm).
(§3) Where dpm=disintegrations per minute, cmpd=signal in assay well, and min and max are the respective minimum and maximum signal controls.
(§4) Where top and bottom are the normally allowed to float, but may be fixed at 100 or 0 respectively in a 3-parameter fit. The Hill Coefficient normally allowed to float but may also be fixed at 1 in a 3-parameter fit. Y is the % inhibition and X is the compound concentration.

[2] = target: T2, Full-length human PRMT1 isoform 1 (Homo sapiens, UniProt Q99873); assay: PRMT1 biochemical assay (3H-SAM Flashplate, peptide substrate)
T2 construct: GST-tagged PRMT1; made in house; host or cells: High Five insect cells (baculovirus, pFastBacI)
T2 sequence (Q99873 with tags, fused parts or gaps): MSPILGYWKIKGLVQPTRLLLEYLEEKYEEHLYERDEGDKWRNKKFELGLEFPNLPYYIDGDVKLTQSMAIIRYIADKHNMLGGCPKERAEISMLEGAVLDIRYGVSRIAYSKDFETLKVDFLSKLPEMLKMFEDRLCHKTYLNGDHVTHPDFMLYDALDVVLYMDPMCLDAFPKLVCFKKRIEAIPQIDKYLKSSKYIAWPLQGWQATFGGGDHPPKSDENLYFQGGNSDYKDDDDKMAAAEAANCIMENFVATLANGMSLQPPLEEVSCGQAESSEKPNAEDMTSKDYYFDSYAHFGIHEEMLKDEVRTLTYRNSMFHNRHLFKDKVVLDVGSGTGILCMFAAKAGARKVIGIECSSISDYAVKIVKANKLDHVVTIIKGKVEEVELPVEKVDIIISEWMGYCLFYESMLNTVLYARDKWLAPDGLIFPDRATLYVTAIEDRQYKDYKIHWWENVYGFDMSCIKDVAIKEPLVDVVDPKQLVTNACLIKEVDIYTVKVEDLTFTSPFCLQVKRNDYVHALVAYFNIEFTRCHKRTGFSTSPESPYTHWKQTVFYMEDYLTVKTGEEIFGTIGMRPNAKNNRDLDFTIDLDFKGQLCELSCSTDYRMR
Text: as §1, with “(BSG),” for “(BSG), sodium butyrate”
Protein Expression. Recombinant baculovirus were generated according to Bac-to-Bac kit instructions (Life Technologies). […] Infections were carried out at 27° C. for 48 hours, harvested by centrifugation, and stored at −80° C. for purification.
Protein Purification. […] GST-tagged PRMT1 was eluted with 50 mM Tris, 2 mM glutathione, pH 7.8, dialysed in buffer A and concentrated to 1 mg/mL.
as §2, with “PRMT1” for “PRMT6”, “PRMT1,” for “PRMT6,”, “300” for “400”
as §3, §4

Compound: CNCCN(C)Cc1c[nH]nc1-c1ccc(OC(C)C)cc1 [Compound 19, N^1-((3-(4-isopropoxyphenyl)-1H-pyrazol-4-yl)methyl)-N^1,N^2-dimethylethane-1,2-diamine]
EC30 [1]: < 3000 nM | IC50 (Full-length human PRMT6): < 100 nM

Compound: CNCCN(C)Cc1c[nH]nc1-c1ccc(OC2CCOCC2)cc1 [Compound 175]
EC30 [1]: < 3000 nM | IC50 [2]: < 100 nM | IC50 (Full-length human PRMT6): < 100 nM

Compound: CC(C)Oc1ccc(-c2nn(C)cc2CN(C)CCN)cc1 [Compound 176]
EC30 [1]: < 3000 nM | IC50 [2]: < 100 nM | IC50 (Full-length human PRMT6): < 100 nM

Compound: CC(C)Oc1ccc(-c2c(CN(C)CCN)cnn2C)cc1 [Compound 177]
EC30 [1]: < 3000 nM | IC50 [2]: < 100 nM | IC50 (Full-length human PRMT6): < 100 nM

Compound: CN(CCN)Cc1c[nH]nc1-c1ccc(OC2CCOCC2)cc1 [Compound 178]
EC30 [1]: < 3000 nM | IC50 [2]: < 100 nM | IC50 (Full-length human PRMT6): < 100 nM

Compound: COCCCOc1ccc(-c2n[nH]cc2CN(C)CCN)cc1 [Compound 179]
EC30 [1]: < 3000 nM | IC50 [2]: < 100 nM | IC50 (Full-length human PRMT6): < 100 nM

Compound: CNCCN(C)Cc1c[nH]nc1-c1ccc(OC(C)C)c(F)c1 [Compound 181]
EC30 [1]: > 12000 nM | IC50 [2]: < 100 nM | IC50 (Full-length human PRMT6): < 100 nM

Compound: CN(CCN)Cc1c[nH]nc1-c1ccc(OCCCN2CCOCC2)cc1 [Compound 186]
EC30 [1]: > 12000 nM | IC50 (Full-length human PRMT6): < 100 nM

Compound: CN(CCN)Cc1c[nH]nc1-c1ccc(N2CCN(C(=O)Cc3ccccc3)CC2)cc1 [Compound 190]
EC30 [1]: 3010 to 12000 nM | IC50 (Full-length human PRMT6): < 100 nM

Compound: CN(CCN)Cc1c[nH]nc1-c1ccc(Oc2ccccc2)cc1 [Compound 200]
EC30 [1]: < 3000 nM

Compound: CNCCN(C)Cc1cn[nH]c1-c1ccc(OC(C)C)c(Cl)c1 [Compound 201]
EC30 [1]: < 3000 nM | IC50 (Full-length human PRMT6): < 100 nM

Compound: CNCCN(C)Cc1cnn(C)c1-c1ccc(OC(C)C)c(Cl)c1 [Compound 220, N^1-((5-(3-chloro-4-isopropoxyphenyl)-1-methyl-1H-pyrazol-4-yl)methyl)-N^1,N^2-dimethylethane-1,2-diamine]
EC30 [1]: < 3000 nM | IC50 (Full-length human PRMT6): < 100 nM

Compound: COCCn1cnc(-c2ccc(C#N)cc2)c1CN(C)CCN [Compound 223]
EC30 [1]: > 12000 nM | IC50 [2]: > 10000 nM

Compound: CNCCN(C)Cc1c[nH]nc1-c1cc(C(C)C)cc(C(C)C)c1 [Compound 229, N^1-((3-(3,5-diisopropylphenyl)-1H-pyrazol-4-yl)methyl)-N^1,N^2-dimethylethane-1,2-diamine]
EC30 [1]: 3010 to 12000 nM | IC50 [2]: < 100 nM | IC50 (Full-length human PRMT6): 101 to 1000 nM

Compound: CNCCN(C)Cc1c[nH]nc1-c1ccc(Oc2cccc(OC)c2)cc1 [Compound 230]
EC30 [1]: < 3000 nM | IC50 [2]: < 100 nM | IC50 (Full-length human PRMT6): < 100 nM

Compound: CNCCN(C)Cc1c[nH]nc1-c1ccc(Oc2cccc(F)c2)cc1 [Compound 231]
EC30 [1]: < 3000 nM | IC50 [2]: < 100 nM | IC50 (Full-length human PRMT6): < 100 nM

Compound: CNCCN(C)Cc1c[nH]nc1-c1ccc(Oc2ccccc2)c(C(=O)NC)c1 [Compound 232]
EC30 [1]: 3010 to 12000 nM | IC50 [2]: < 100 nM | IC50 (Full-length human PRMT6): < 100 nM

Compound: CNCCN(C)Cc1c[nH]nc1-c1ccc(Oc2ccccc2)c(C(=O)N(C)C)c1 [Compound 233]
EC30 [1]: > 12000 nM | IC50 [2]: < 100 nM | IC50 (Full-length human PRMT6): < 100 nM

IC50 [2]: < 100 nM | IC50 (Full-length human PRMT6): < 100 nM
Compound: CNCCN(C)Cc1n[nH]cc1-c1ccc(Oc2ccccc2)c(C#N)c1 [Compound 234]
EC30 [1]: < 3000 nM

Compound: CC(C)Cc1cccc(-c2n[nH]cc2CN(C)CCN)c1 [Compound 235]
EC30 [1]: < 3000 nM | IC50 [2]: < 100 nM | IC50 (Full-length human PRMT6): 101 to 1000 nM

Compound: CNCCN(C)Cc1c[nH]nc1-c1ccc(OCCCO)cc1 [Compound 236]
EC30 [1]: < 3000 nM | IC50 [2]: < 100 nM | IC50 (Full-length human PRMT6): < 100 nM

Compound: CNCCN(C)Cc1c[nH]nc1-c1ccc(Oc2ccccc2F)cc1 [Compound 237]
EC30 [1]: < 3000 nM | IC50 [2]: < 100 nM | IC50 (Full-length human PRMT6): < 100 nM

Compound: CNCCN(C)Cc1c[nH]nc1-c1ccc(Oc2cccc(C(=O)N(C)C)c2)cc1 [Compound 264]
EC30 [1]: 3010 to 12000 nM | IC50 (Full-length human PRMT6): < 100 nM

Compound: CNCCN(C)Cc1n[nH]cc1-c1ccc(Oc2cccc(C(=O)N(C)C)c2)cc1 [Compound 269]
EC30 [1]: > 12000 nM | IC50 (Full-length human PRMT6): < 100 nM

Compound: CNCCN(C)Cc1n[nH]cc1-c1ccc(Oc2ccccc2C(=O)NC)cc1 [Compound 278]
EC30 [1]: 3010 to 12000 nM | IC50 (Full-length human PRMT6): < 100 nM
